{"source": "patent US5500429A", "about": "“Calcium uptake inhibitors” (Merrell Pharmaceuticals Inc., priority 1993, dated 1996)", "key": {"[1]": {"tested_on": "Rat PMNL", "assay": "Myeloperoxidase (MPO) Release from rat PMNL", "type": "cell-based", "details": "for inhibition at 1 µM / inhibition at 3 µM / inhibition at 10 µM / inhibition at 30 µM / inhibition at 100 µM / inhibition at 300 µM: Rattus norvegicus, PMNL", "method": "(§1) Rat PMNL were obtained from exudates resulting from peritoneal injection of 6 mL of 8% sodium caseinate. Eighteen hours after injection rats were killed by carbon dioxide inhalation and the peritoneal cavity lavaged with Hank's balanced salt solution (HBSS). After concentration of the PMNL by centrifugation, contaminating erythrocytes were removed by hypotonic lysis. The PMNL were then washed twice by centrifugation (400×g for 10 minutes) and resuspended in HBSS. Cell viability was greater than 90% by Trypan Blue exclusion and greater than 90% of the cells were PMNL by Wright-Giemsa stain.\nMPO release was determined using the MPO catalyzed oxidation of o-dianisidine. The experiments were carried out in 96-well microtiter plates (Webster and Henson, 1978). In each well, 50 microliter (μ1) aliquots of a PMNL suspension (2×10^7 cell/mL in HBSS) were incubated with 50 μof HBSS containing vehicle (0.3% DMSO) or inhibitor for 30 minutes at 37° C. The final DMSO concentration never exceeded 0.3% and was constant throughout each experiment. To activate the PMNL, 50 μl of one of the following were added for 30 minutes at 37° C.: N-formyl-Met-Leu-Phe (fMLP; 0.1 μM); phorbol myristate acetate (PMA, 200 ng/mL); or rat serum opsonized zymosan (OZ; 2.6 mg/mL, prepared by the method of Ward et al., 1983). The stimuli were added in 50 μl HBSS which also contained the compounds or vehicle, as appropriate, to avoid changing the inhibitor concentration. Cell activation was terminated by centrifugation of the plates at 600×g for 5 minutes at 22° C. Aliquots (100 μl) of supernatant were removed from each well and transferred to a 96-well flatbottomed microtiter plate for the MPO assay. To each aliquot of supernatant was added 100 μl of a freshly prepared solution containing 50 μl of 0.2M sodium phosphate buffer (pH 6.2), 25 μl of 3.9 mM O-dianisidine and 25 μl of 0.015M hydrogen peroxide. Blanks were obtained using the same solution without hydrogen peroxide. The plates were mixed and then incubated at room temperature in the dark for about 15 minutes. Absorbances of the samples were measured at 450 nm.\nRat PMNL were isolated in HBSS containing Ca^+2. As summarized in the figure below, fMLP stimulation of rat PMNL in the presence of cytochalasin B or with opsonized zymosan or with ionomycin results in the release of myeloperoxidase (fMLP/MPO, OZ/MPO, and ION/MPO; columns 2, 4, and 6 respectively)."}, "[2]": {"tested_on": "Rat PMNL (intracellular calcium)", "assay": "Measurement of Intracellular Calcium (Fura-2) in fMLP-stimulated rat PMNL", "type": "cell-based", "details": "for suppression of the second wave of intracellular calcium changes: fMLP-stimulated PMNL, preincubation with compound, FIG. 1", "method": "as §1\nIntracellular calcium levels were obtained using Fura-2 as fluorescent indicator (Grynkiewicz et al., 1985). Fura-2 was loaded into PMNL as the acetoxymethyl ester (Fura-2/AM) using the method of Korchak et al., (1988). Specifically, 1×10^8 PMNL/mL were incubated in HBSS with 10 μM Fura-2/AM for 10 minutes at 37° C. The cells suspension was then diluted ten fold with HBSS and further incubated for another 20 minutes. The cells were then centrifuged (400×g for 8 minutes at 25° C.) and the PMNL (1×10^7 cells/mL) resuspended in HBSS containing 1% bovine serum albumin. Cells were stored at room temperature and used within 3 hours.\nIntracellular calcium level determinations were made using a dual wavelength spectrofluorometer (Photon Technology International, New Brunswick, N.J.). Two mL of PMNL suspension (1×10^7 cells/mL) were stirred magnetically at 37° C. Cells were preincubated with the compounds for 15 minutes at 37° C. prior to activation. Where compounds were dissolved in DMSO and added directly, the DMSO never exceeded 0.3% in the final cell suspension. Total change in volume with addition of compounds or vehicle and stimuli never exceeded 3%. Intracellular calcium concentrations were calibrated by setting a maximum calcium level in the cells with the addition of 7 uM ionomycin to PMNL in HBSS containing 1% BSA. This was followed by treatment with 20 mM EGTA for 1 hour to obtain a minimum calcium level. […]"}, "[3]": {"details": "fMLP + cytochalasin B, read-out: fMLP/MPO inhibition"}, "[4]": {"details": "ionomycin, read-out: ION/MPO inhibition"}, "[5]": {"details": "opsonized zymosan, read-out: OZ/MPO inhibition"}, "[6]": {"details": "fMLP + cytochalasin B, opsonized zymosan, ionomycin"}}, "note": "Like-named read-outs stand apart in the source and are kept apart here."}
{"compound": "O=C(C=Cc1ccncc1)c1ccccc1", "note": "[MDL 29,355, 1-phenyl-3-(4-pyridinyl)-2-propene-1-one]", "values": [{"measurement": "inhibition at 1 µM", "setting": "[1]; [3]", "result": 0.1, "unit": "%"}, {"measurement": "inhibition at 3 µM", "setting": "[1]; [3]", "result": 5, "unit": "%"}, {"measurement": "inhibition at 10 µM", "setting": "[1]; [3]", "result": 16.5, "unit": "%"}, {"measurement": "inhibition at 30 µM", "setting": "[1]; [3]", "result": 53.3, "unit": "%"}, {"measurement": "inhibition at 100 µM", "setting": "[1]; [3]", "result": 101, "unit": "%"}, {"measurement": "inhibition at 300 µM", "setting": "[1]; [3]", "result": 104, "unit": "%"}, {"measurement": "inhibition at 1 µM", "setting": "[1]; [4]", "result": -4.5, "unit": "%"}, {"measurement": "inhibition at 3 µM", "setting": "[1]; [4]", "result": -1.7, "unit": "%"}, {"measurement": "inhibition at 10 µM", "setting": "[1]; [4]", "result": 14.8, "unit": "%"}, {"measurement": "inhibition at 30 µM", "setting": "[1]; [4]", "result": 24.4, "unit": "%"}, {"measurement": "inhibition at 100 µM", "setting": "[1]; [4]", "result": 89.1, "unit": "%"}, {"measurement": "inhibition at 300 µM", "setting": "[1]; [4]", "result": 99.6, "unit": "%"}, {"measurement": "inhibition at 1 µM", "setting": "[1]; [5]", "result": -1.7, "unit": "%"}, {"measurement": "inhibition at 3 µM", "setting": "[1]; [5]", "result": 3.4, "unit": "%"}, {"measurement": "inhibition at 10 µM", "setting": "[1]; [5]", "result": 3.6, "unit": "%"}, {"measurement": "inhibition at 30 µM", "setting": "[1]; [5]", "result": 3.2, "unit": "%"}, {"measurement": "inhibition at 100 µM", "setting": "[1]; [5]", "result": 7.1, "unit": "%"}, {"measurement": "inhibition at 300 µM", "setting": "[1]; [5]", "result": 42.4, "unit": "%"}, {"measurement": "inhibition of myeloperoxidase release", "setting": "[1]; [6]", "result": "dose dependent inhibition of myeloperoxidase release"}, {"measurement": "suppression of the second wave of intracellular calcium changes", "setting": "[2]", "result": "selective concentration-dependent suppression of the second wave of intracellular calcium changes"}]}
{"compound": "CN(C)c1ccc(C(=O)C=Cc2ccncc2)cc1", "note": "[MDL 101,240, 1-(4-dimethylaminophenyl)-3-(4-pyridinyl)-2-propene-1-one]", "values": [{"measurement": "inhibition at 1 µM", "setting": "[1]; [3]", "result": 13.1, "unit": "%"}, {"measurement": "inhibition at 3 µM", "setting": "[1]; [3]", "result": 11.7, "unit": "%"}, {"measurement": "inhibition at 10 µM", "setting": "[1]; [3]", "result": 31.2, "unit": "%"}, {"measurement": "inhibition at 30 µM", "setting": "[1]; [3]", "result": 67.3, "unit": "%"}, {"measurement": "inhibition at 100 µM", "setting": "[1]; [3]", "result": 112, "unit": "%"}, {"measurement": "inhibition at 1 µM", "setting": "[1]; [4]", "result": -8, "unit": "%"}, {"measurement": "inhibition at 3 µM", "setting": "[1]; [4]", "result": -5, "unit": "%"}, {"measurement": "inhibition at 10 µM", "setting": "[1]; [4]", "result": -2, "unit": "%"}, {"measurement": "inhibition at 30 µM", "setting": "[1]; [4]", "result": 12, "unit": "%"}, {"measurement": "inhibition at 100 µM", "setting": "[1]; [4]", "result": 35.6, "unit": "%"}, {"measurement": "inhibition at 1 µM", "setting": "[1]; [5]", "result": 2.5, "unit": "%"}, {"measurement": "inhibition at 3 µM", "setting": "[1]; [5]", "result": 7.3, "unit": "%"}, {"measurement": "inhibition at 10 µM", "setting": "[1]; [5]", "result": 28.1, "unit": "%"}, {"measurement": "inhibition at 30 µM", "setting": "[1]; [5]", "result": 82.5, "unit": "%"}, {"measurement": "inhibition at 100 µM", "setting": "[1]; [5]", "result": 142, "unit": "%"}, {"measurement": "inhibition of myeloperoxidase release", "setting": "[1]; [6]", "result": "dose dependent inhibition of myeloperoxidase release"}, {"measurement": "relative inhibition of the second phase (calcium uptake)", "setting": "[2]; MDL 101,240 vs MDL 29,355, fMLP stimulus", "result": "stronger inhibition for MDL 101,240 than for MDL 29,355"}, {"measurement": "suppression of the second wave of intracellular calcium changes", "setting": "[2]", "result": "selective concentration-dependent suppression of the second wave of intracellular calcium changes"}]}
